{"source": "patent US20210386744A1", "about": "“SILDENAFIL FOR USE IN THE TREATMENT OF OSTEOARTHRITIS” (MAZELOTTEN 353 AB under namnandring till ARTROA AB, priority 2018, published 2021)", "key": {"[1]": {"tested_on": "Horse chondrocytes from OA horses", "assay": "ATP-evoked intracellular Ca2+ signalling in horse chondrocytes (fluorescence-based assay, Flexstation 3)", "format": "cell-based", "details": "for intracellular Ca2+ release (AUC and peak): ATP 10^-4 M, OA horse chondrocytes", "description": "Horse chondrocytes from OA horses were stimulated, in a fluorescence-based assay for detecting changes in intracellular Ca^2+ over time, with ATP (10^−4 M). The cells were cultivated in 5.5 mM glucose the whole cultivation period. Ca^2+ responses were measured after the cells were incubated for 24 h with metformin (1 mM), and bupivacaine (10^−12 M). Controls are untreated chondrocytes. The area under the Ca^2+ peak (AUC)(FIG. 1 A) was calculated for each Ca^2+ transient as well as the amplitude (peak) (FIG. 1 B) was expressed as the maximum increase. The cells were obtained from 4 experiments with quadruple wells in each. The level of significance was analyzed using a one-way ANOVA followed by Dunnett'multiple comparisons test. **P<0.01, **P<0.001. Similar data was obtained for human chondrocytes.\nArticular cartilage samples were obtained, within 24 h of euthanasia, from the middle carpal joints of six horses (1-8-year-old). […] The horses were euthanized because of reasons unrelated to this study, and the Ethical Committee on Animal Experiments, Stockholm, Sweden, approved the study protocol (Dnr: N378/12).\nFollowing aseptic preparation, cartilage of the dorsal aspect of the radial facet of the third carpal bone was incised with a scalpel, and full-thickness cartilage samples were collected with forceps. The tissue was placed in a sterile saline (0.9% NaCl) solution with gentamicin sulfate (50 mg/l) and amphotericin B (250 μg/ml). Cartilage samples were transported chilled (approx. 5° C.) to the laboratory. Isolation and expansion of chondrocytes were performed as previously described (Ley C, Svala E, Nilton A, Lindahl A, Eloranta M, Ekman S, Skiöldebrand E.Connect Tissue Res. (2011); 52 (4): 290-300). Cells were expanded in passage 1 and cells were seeded at 20,000 cells/cm2 in chondrogenic media to maintain the phenotype, DMEM-high glucose (DMEM-HG) (Thermo Fisher Scientific; Waltham, Mass., USA) supplemented with 14 μg/ml ascorbic acid (Sigma-Aldrich, St. Louis, Mo., USA), 10^−7 M dexamethasone (Sigma-Aldrich), 1 mg/ml human serum albumin (Equitech Bio, Kerville, Tex., USA), 1× insulin-transferrin-selenium (Gibco, Life Technologies, Carlsbad, Calif., USA), 5 μg/ml linoleic acid (Sigma-Aldrich), 1× penicillin-streptomycin (PEST) (Sigma-Aldrich), and 10 ng/ml human transforming growth factor (TGF) β-1 (R&D Systems, Abingdon, UK) for 5 days until confluence, in 96-well culture plates for Ca^2+ or in 6-well culture plates for Western blot analysis.\nFor restoration the cells were incubated with metformin and bupivacaine at day 4 of cultivation for 24 h. At day 5 the Ca^2+ measurements were performed, medium collected for Western blot analysis and cells were harvested and immediately frozen at −80° C. before analysis. […]"}, "[2]": {"tested_on": "human chondrocytes", "assay": "Quantitative real-time PCR of growth factors GDF-5 and FGF-18 in chondrocytes", "format": "cell-based", "details": "for FGF18 expression / GDF5 expression: human chondrocytes, treatment of bupivacaine and sildenafil, FIGS. 1C-D", "description": "Cells (human chondrocytes) aimed for RNA isolation were washed with sterile PBS twice before addition of 1M DL-Dithiothreitol solution (Sigma Aldrich) in lysis buffer (Qiagen). The cells were visually inspected to ensure lysis before transfer to RNAse free, endtoxin-free sample tubes, snap frozen in liquid nitrogen, and stored at −80° C. for RNA isolation. Total RNA was extracted and purified with a commercially available kit (RNeasy mini kit, Qiagen) in accordance with the manufacturer's protocol. In brief, cells in lysis buffer were thawed and vortexed for 1 minute before 70% ethanol was added (1:1). The samples were mixed before addition to a spin column, and centrifuged. The column was then washed before genomic DNA was removed with DNase (Qiagen). The washing step was repeated with a stringent wash buffer and thereafter a mild buffer for washing membrane bound RNA. Total RNA was eluted with 50 μl RNase free water. RNA concentration was measured ho with a micro-volume spectrophotometer (ND-1000 spectrophotometer, NanoDrop Technologies, Wilmington, Del.) and RNA quality was evaluated using the Agilent 2100 Bioanalyzer system (Agilent Technologies Inc, Palo Alto, Calif.). cDNA was prepared from total RNA using High Capacity cDNA Reverse Transcription Kit (Applied Biosystems, Foster City, Calif., USA). Commercially available TaqMan Gene Expression Assays all from Applied Biosystems were used (Fibroblast growth factor 18 (FGF-18) and Growth and differentiation factor-5 (GDF-5)). Samples were analyzed in duplicates. The relative comparative CT method was used to analyze the real-time polymerase chain reaction (PCR) data."}, "[3]": {"tested_on": "COMP neo-epitope", "assay": "COMP neo-epitope concentration in synovial fluid and serum of horses with osteoarthritis", "format": "in vivo, horse", "details": "for COMP neo-epitope concentration in serum: after treatment and during rehabilitation", "from_the_text": "Diagnosis of OA may be done with methods known in the art, for example clinical examination, radiography as is known in the art or the use of biomarkers, such as, for example, the COMP protein fragment described in WO2017216289, which is incorporated herein by reference. The presence of the COMP fragment in a bodily fluid, for example serum or synovial fluid, indicates OA, in particular cartilage degradation during OA. The COMP fragment may be detected by using an antibody that specifically binds to a peptide comprising the amino acid sequence N-terminal-SGPTH. It is referred to WO2017216289 for details.\nAnalysis of COMP epitope concentrations in synovial fluid and serum was carried out as in WO2017216289, and is shown in FIGS. 2B and C, respectively. The presence of the COMP epitope indicates ongoing inflammation and tissue damage in the joint."}, "[4]": {"tested_on": "horse with OA", "assay": "Clinical lameness examination with flexion test in horses with osteoarthritis", "format": "in vivo", "from_the_text": "Lameness examination with flexion test and treatments have been performed by a veterinarian, and the results are shown in FIG. 2A. Lameness examination with flexion test and treatments have been performed by a veterinarian, and the results are shown in FIG. 3A."}}, "note": "“Also recorded” adds a separate entry of the source."}
{"compound": "C=C1/C(=C\\C=C2/CCC[C@]3(C)[C@@H]([C@H](C)CCCC(C)(C)O)CC[C@@H]23)C[C@@H](O)C[C@@H]1O", "note": "[D3, 1α,25-dihydroxyvitamin D3]", "values": [{"measurement": "intracellular Ca2+ release", "setting": "[1]; D3 (calcitriol 100 nM) by itself, 24 h, FIG. 1E", "result": "did not have an effect"}]}
{"compound": "CCCCN1CCCCC1C(=O)Nc1c(C)cccc1C", "note": "(centres unmarked) [bupivacaine]", "values": [{"measurement": "intracellular Ca2+ release (AUC and peak)", "setting": "[1]; bupivacaine 10^-12 M together with metformin 1 mM, 24 h", "result": "decreased; also recorded: reduced"}, {"measurement": "FGF18 expression", "setting": "[2]", "result": "upregulated"}, {"measurement": "GDF5 expression", "setting": "[2]", "result": "upregulated"}, {"measurement": "growth factors of importance for generation of cartilage", "setting": "[2]; low concentration of bupivacaine", "result": "upregulated"}]}
{"compound": "CCCc1nn(C)c2c(=O)[nH]c(-c3cc(S(=O)(=O)N4CCN(C)CC4)ccc3OCC)nc12", "note": "[sildenafil]", "values": [{"measurement": "COMP neo-epitope concentration in serum", "setting": "[3]; horse number 2, FIG. 3C", "result": "decrease of COMP levels to normal physiological levels"}, {"measurement": "COMP neo-epitope concentration in synovial fluid", "setting": "[3]; horse number 2, FIG. 3B", "result": "decrease of COMP levels to normal physiological levels"}, {"measurement": "COMP neo-epitope concentration in serum", "setting": "[3]; horse number 3, FIG. 4C", "result": "decreased levels of COMP"}, {"measurement": "COMP neo-epitope concentration in synovial fluid", "setting": "[3]; horse number 3, FIG. 4B", "result": "decreased levels of COMP"}, {"measurement": "clinical lameness grade", "setting": "[4]; horse number 2, carpal joints, 10 ml intra-articular injections", "result": "clinical recovery"}, {"measurement": "clinical lameness grade", "setting": "[4]; horse number 3, both carpal joints, intra-articular injection", "result": "clinical recovery"}, {"measurement": "intracellular Ca2+ release (AUC and peak)", "setting": "[1]; sildenafil (1 μM, low concentration) added to bupivacaine/metformin, 24 h", "result": "increased the effect"}, {"measurement": "intracellular calcium signalling, in particular ATP-evoked", "setting": "[1]; low doses", "result": "capable of inhibiting"}, {"measurement": "growth factors of importance for generation of cartilage", "setting": "[2]; addition of sildenafil in low concentration to bupivacaine", "result": "increased the effect"}, {"measurement": "FGF18 expression", "setting": "[2]", "result": "upregulated"}, {"measurement": "GDF5 expression", "setting": "[2]", "result": "upregulated"}]}
{"compound": "hyaluronic acid", "values": [{"measurement": "lameness", "setting": "[4]; horse number 1, both fetlock joints, hyaluronic acid intra-articularly and corticosteroids orally", "result": "lameness was increased"}]}
